Experimental data from ChEMBL document CHEMBL1130549, “Dihydroisoquinolone RGD mimics. Exploration of the aspartate isostere” (Bioorg Med Chem Lett, 1997).
Positions of bridges follow the written chain, without caps; N, C: chain ends. Non-standard residues stand in square brackets, D forms with d. Residues, ends and D or L forms follow the SMILES beside them. Pen = CC(C)(S)[C@H](N)C(=O)O; Mpa = O=C(O)CCS

What was measured:
Type in all cases: protein-complex assay
[1] = biological target: T1, Integrin alpha-IIb/beta-3 (Homo sapiens, UniProt P05106+P08514); test: Inhibition of fibrinogen binding to purified human alpha IIb beta-3 integrin by 50% in an ELISA test
T1 sequence (P05106 27-788 limits assumed): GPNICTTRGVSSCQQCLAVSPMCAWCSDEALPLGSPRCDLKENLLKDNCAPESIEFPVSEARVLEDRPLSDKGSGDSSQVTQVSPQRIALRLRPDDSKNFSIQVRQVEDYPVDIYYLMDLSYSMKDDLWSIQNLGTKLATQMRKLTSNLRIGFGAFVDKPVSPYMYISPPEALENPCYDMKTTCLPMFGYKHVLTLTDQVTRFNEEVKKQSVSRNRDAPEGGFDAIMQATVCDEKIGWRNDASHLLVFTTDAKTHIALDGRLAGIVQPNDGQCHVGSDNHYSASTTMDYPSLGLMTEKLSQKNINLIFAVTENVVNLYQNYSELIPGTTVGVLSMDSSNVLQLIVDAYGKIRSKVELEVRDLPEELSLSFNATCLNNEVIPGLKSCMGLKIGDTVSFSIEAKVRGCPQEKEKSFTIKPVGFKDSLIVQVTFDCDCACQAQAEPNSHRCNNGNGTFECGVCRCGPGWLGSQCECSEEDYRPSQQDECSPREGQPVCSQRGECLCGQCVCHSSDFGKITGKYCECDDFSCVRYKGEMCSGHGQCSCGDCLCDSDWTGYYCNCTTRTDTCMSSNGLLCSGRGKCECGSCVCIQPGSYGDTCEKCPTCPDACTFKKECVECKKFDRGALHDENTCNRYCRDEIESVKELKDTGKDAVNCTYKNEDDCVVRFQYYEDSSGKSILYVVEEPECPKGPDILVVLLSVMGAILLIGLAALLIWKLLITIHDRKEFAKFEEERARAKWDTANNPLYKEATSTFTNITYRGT
T1 sequence (P08514 32-887 limits assumed): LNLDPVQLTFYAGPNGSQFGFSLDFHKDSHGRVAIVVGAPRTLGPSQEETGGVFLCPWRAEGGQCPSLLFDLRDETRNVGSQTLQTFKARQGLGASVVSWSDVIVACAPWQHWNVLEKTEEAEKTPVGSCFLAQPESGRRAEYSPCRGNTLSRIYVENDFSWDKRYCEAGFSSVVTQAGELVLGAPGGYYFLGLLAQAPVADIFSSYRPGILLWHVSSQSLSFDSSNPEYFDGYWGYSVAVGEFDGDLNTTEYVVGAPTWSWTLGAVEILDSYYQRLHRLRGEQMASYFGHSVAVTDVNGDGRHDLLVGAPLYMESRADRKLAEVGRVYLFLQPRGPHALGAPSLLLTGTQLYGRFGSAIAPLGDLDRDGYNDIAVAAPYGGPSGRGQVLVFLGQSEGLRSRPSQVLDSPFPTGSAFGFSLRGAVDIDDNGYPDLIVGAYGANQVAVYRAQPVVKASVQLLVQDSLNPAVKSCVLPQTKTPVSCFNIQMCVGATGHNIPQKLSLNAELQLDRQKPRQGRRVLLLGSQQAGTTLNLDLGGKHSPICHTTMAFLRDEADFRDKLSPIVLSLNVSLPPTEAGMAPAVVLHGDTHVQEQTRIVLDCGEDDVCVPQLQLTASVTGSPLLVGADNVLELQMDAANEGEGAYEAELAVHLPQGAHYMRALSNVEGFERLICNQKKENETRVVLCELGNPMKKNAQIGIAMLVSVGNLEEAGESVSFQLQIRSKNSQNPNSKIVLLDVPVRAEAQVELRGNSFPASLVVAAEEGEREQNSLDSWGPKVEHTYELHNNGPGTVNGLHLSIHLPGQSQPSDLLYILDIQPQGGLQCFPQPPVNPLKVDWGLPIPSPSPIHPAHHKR
T1 sequence (P08514 891-1039 limits assumed): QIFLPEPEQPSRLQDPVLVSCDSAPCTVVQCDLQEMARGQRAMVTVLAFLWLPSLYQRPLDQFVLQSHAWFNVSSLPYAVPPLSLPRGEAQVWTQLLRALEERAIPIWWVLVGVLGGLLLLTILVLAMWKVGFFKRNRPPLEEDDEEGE

[2] = biological target: T1, Integrin alpha-IIb/beta-3; test: Inhibition of fibrinogen binding to purified Human alphaIIb-beta3 integrin in ELISA with 0.1% bovine serum albumin (BSA)
[3] = biological target: T1, Integrin alpha-IIb/beta-3; test: Inhibition of fibrinogen binding to purified Human alphaIIb-beta3 integrin in ELISA with 1% bovine serum albumin (BSA)
[4] = biological target: T1, Integrin alpha-IIb/beta-3; test: Inhibition of fibrinogen binding to purified Human alphaIIb-beta3 integrin in ELISA with 4.5% bovine serum albumin (BSA)

| IC50 [1] [nM] | IC50 [2] [nM] | IC50 [3] [nM] | IC50 [4] [nM] | Structure (SMILES) |
| --- | --- | --- | --- | --- |
| 40 | – | – | – | CCCCC(CC(=O)O)N1CCc2cc(OCc3ccc(C(=N)N)cc3)ccc2C1=O (stereo not drawn) |
| 41 | 41 | 80 | 310 | CCCCCCC(CC(=O)O)N1CCc2cc(OCc3ccc(C(=N)N)cc3)ccc2C1=O (stereo not drawn) |
| 320 | – | – | – | N=C(N)c1ccc(COc2ccc3c(c2)CCN(CCC(=O)O)C3=O)cc1 |
| 6 | – | – | – | COC(=O)c1ccc(C(CC(=O)O)N2CCc3cc(OCc4ccc(C(=N)N)cc4)ccc3C2=O)cc1 (stereo not drawn) |
| 90 | – | – | – | COCCOCC(CC(=O)O)N1CCc2cc(OCc3ccc(C(=N)N)cc3)ccc2C1=O (stereo not drawn) |
| 1800 | – | – | – | CCCC(CN1CCc2cc(OCc3ccc(C(=N)N)cc3)ccc2C1=O)C(=O)O (stereo not drawn) |
| 8 | – | – | – | COc1ccc(C(CC(=O)O)N2CCc3cc(OCc4ccc(C(=N)N)cc4)ccc3C2=O)cc1 (stereo not drawn) |
| 100 | – | – | – | CC1(C)SSCCC(=O)N[C@@H](CCCNC(=N)N)C(=O)NCC(=O)N[C@@H](CC(=O)O)C(=O)N[C@@H](Cc2c[nH]c3ccccc23)C(=O)N2CCC[C@H]2C(=O)N[C@@H]1C(N)=O ([Mpa]RGDWP[Pen]-NH2; disulfide 1-7) |
| 56 | – | – | – | COCCCC(CC(=O)O)N1CCc2cc(OCc3ccc(C(=N)N)cc3)ccc2C1=O (stereo not drawn) |
| 1700 | – | – | – | CCCC(C(=O)O)N1CCc2cc(OCc3ccc(C(=N)N)cc3)ccc2C1=O (stereo not drawn) |
| – | 61 | 73 | 100 | CCOCCCC(CC(=O)O)N1CCc2cc(OCc3ccc(C(=N)N)cc3)ccc2C1=O (stereo not drawn) |
| 47 | – | – | – | CCCC(CC(=O)O)N1CCc2cc(OCc3ccc(C(=N)N)cc3)ccc2C1=O (stereo not drawn) |
| 7 | – | – | – | N=C(N)c1ccc(COc2ccc3c(c2)CCN(C(CC(=O)O)c2ccccc2)C3=O)cc1 (stereo not drawn) |
| 46 | – | – | – | CCC(CC(=O)O)N1CCc2cc(OCc3ccc(C(=N)N)cc3)ccc2C1=O (stereo not drawn) |
| – | 24 | 40 | 100 | CCCCCC(CC(=O)O)N1CCc2cc(OCc3ccc(C(=N)N)cc3)ccc2C1=O (stereo not drawn) |
| 3 | – | – | – | N=C(N)c1ccc(C(=O)Nc2ccc3c(c2)CCN(CC(=O)O)C3=O)cc1 |
